{"source": "patent US10471030B2", "about": "“Immunomodulatory and differentiating function selective retinoid and rexinoid compounds in combination with immune modulators for cancer immunotherapy” (Io Therapeutics, Inc., priority 2017, dated 2019)", "key": {"[1]": {"test_system": "MM H929 cell lines and MM CD138+ primary cells", "assay": "mRNA expression of B cell and PC markers in MM cells, liquid or BM stroma co-culture (qRT-PCR)", "type": "cell-based, human", "conditions": "1 μM for 5 days", "method": "(§1) 24-well plates were coated with 0.1% gelatin in PBS for 30 min at 37° C. The gelatin solution was removed, and the stromal cells were cultured overnight at a density of 5×10^4 cells/well to obtain a confluent monolayer. At that time, MM cell lines or primary MM cells (1×10^5 in 2 ml) were added to the stroma cultures. The stroma cocultures were incubated at 37° C. in RPMI containing 10% FCS, L-glutamine, and P/S, with or without AGN194310 (1 μM for 5 days), R115866 (1 μM for 5 days), IRX5183 (1 μM for 5 days), or BTZ (2.5 nM for 48 hr).\nTotal RNA was extracted using the RNeasy Mini Kit (QIAGEN) according to the manufacturer's instructions. cDNA was synthesized by reverse transcription using the iScript cDNA Synthesis Kit (Bio-Rad). qRT-PCR was performed with iTaq SYBR Green Supermix (Bio-Rad) using sequence specific primers. Gene expression was normalized to GAPDH, and relative quantification was calculated using ΔΔCt. All experiments were performed in duplicate and run on the Bio-Rad CFX96 machine.\nThe BM microenvironment (also called “niche”) limits PC differentiation by modulating retinoid signaling. A population of MM progenitors, phenotypically similar to B cells, is intrinsically resistant to BTZ and contributes to MRD and relapse. To investigate whether the BM niche plays a role in determining the phenotype of MM cells, the mRNA expression of B cell and PC markers in MM H929 cell lines (FIGS. 3A-D) and MM CD138+ primary cells (FIGS. 3E-H) was analyzed following co-culture with mouse BM stroma using human-specific primers. […] In contrast, co-culture of MM cells with BM stroma decreased the mRNA expression of B lymphocyte-induced maturation protein 1 (BLIMP1) and spliced X box-binding protein 1 (XBP1s) (FIG. 3B, C, F, G), which are critical mediators of PC differentiation.\nThe BM niche regulates hematopoietic stem cell (HSC) differentiation by expressing the retinoid-inactivating enzyme CYP26. CYP26 enzymes were highly expressed in BM mesenchymal cells, while their expression was barely detectable in MM cells. Since retinoid signaling promotes PC differentiation and potentiates Ig secretion, it was determined whether stromal CYP26 is responsible for inducing a B cell phenotype in MM cells. To this end, co-culture conditions were treated with the CYP26 inhibitor R115866 (R115) or the CYP26-resistant RA receptor α-selective (RARα-selective) retinoid IRX5183 (IRX)."}, "[2]": {"test_system": "MM cell lines and MM CD138+ primary cells", "assay": "BTZ sensitivity of MM cells, clonogenic or cellular recovery, liquid or BM stroma", "type": "cell-based, human", "conditions": "BM stroma with 1 μM test agent for 5 days, then BTZ 2.5 nM for 48 hr", "method": "as §1\nMM cells were separated from BM stromal cells by gently pipetting several times around the well. Detached cells were centrifuged, resuspended in fresh media, and incubated in a 24-well plate for 1 hr at 37° C. During this short incubation period, contaminating stromal cells attached to the well, while MM cells remained in suspension. MM cells were then recovered by gently pipetting. This protocol was used for qRT-PCR and CFU coculture experiments. The purity achieved using this protocol was confirmed by flow cytometry to be 98%-99% MM cells and less than 2% contaminating stroma.\nAfter treatment, MM cells were collected, washed with PBS, and plated at a density of 5,000 cells/ml in 1 ml of 1.32% methylcellulose supplemented with 30% FBS, 10% BSA, L-glutamine, P/S, and 0.1 mM β-ME. Cells were plated in triplicate in 35-mm culture dishes, incubated at 37° C., and scored for the presence of colonies 14 days later.\nTo determine whether decreased retinoid signaling contributes to BTZ resistance within the BM niche, MM cell lines and MM CD138+ primary cells were incubated with BM stroma for 5 days, followed by BTZ treatment.\nStrategies to overcome microenvironment-dependent chemoprotection have focused on mobilization of cancer cells from the BM niche into the peripheral circulation. It was analyzed whether the change in phenotype and subsequent BTZ resistance of MM cells were lost upon separation from the BM stroma, a process that mimics mobilization. To this end, H929 cells were separated from BM mesenchymal cells following a 5-day stroma co-culture, incubated in fresh media (RPMI with 10% FBS) for 0 to 48 hr, and then treated with BTZ. […] Thus, microenvironment-dependent BTZ resistance induced by the change in MM cell phenotype may not immediately be reversed by tumor mobilization."}}}
{"smiles": "CC1(C)CCC(C)(C)c2c1cc(C(=O)Nc1cc(F)c(C(=O)O)c(F)c1)c(O)c2Cl", "note": "[IRX5183]", "values": [{"measurement": "mRNA expression of BCL6, BLIMP1, XBP1s, CHOP markers", "setting": "[1]; BM stroma co-cultures", "value": "restored all markers to levels comparable to those of liquid control conditions"}, {"measurement": "expression of differentiation markers", "setting": "[1]; liquid conditions (absence of stroma)", "value": "induced comparable changes, irrespective of the presence or absence of BM stroma"}, {"measurement": "stroma-induced BTZ resistance", "setting": "[2]", "value": "overcome"}]}
